The text below walks through data of patent publication US6825205B2 (priority 2002, dated 2004).

The target in data set [1] is μ opioid receptor (μ membrane protein) (Homo sapiens, UniProt P35372). As to the kind of experiment: biochemical.
Data set [2] can be described thus: in vivo. The note with it: Sprague-Dawley, rat, ip, 10 mg/kg.
The conditions of data set [3]: rat, in vivo.

The structures appear in SMILES notation.

Sequence of μ opioid receptor (μ membrane protein) (P35372 whole entry, species assumed): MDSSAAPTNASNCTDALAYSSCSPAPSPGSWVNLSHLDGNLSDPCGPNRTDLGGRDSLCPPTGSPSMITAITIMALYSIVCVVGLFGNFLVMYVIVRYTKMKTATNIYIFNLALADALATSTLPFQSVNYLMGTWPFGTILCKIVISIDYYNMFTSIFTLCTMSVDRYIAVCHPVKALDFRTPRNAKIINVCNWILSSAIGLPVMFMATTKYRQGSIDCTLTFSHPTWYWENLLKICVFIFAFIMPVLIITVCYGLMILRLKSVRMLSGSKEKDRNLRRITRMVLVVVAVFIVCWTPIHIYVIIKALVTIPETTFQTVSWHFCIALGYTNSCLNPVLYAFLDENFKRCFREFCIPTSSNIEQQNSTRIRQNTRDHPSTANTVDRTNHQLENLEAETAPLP

On to `C[N+]1(C)CC[C@]23c4c5ccc(O)c4O[C@H]2C(=O)CC[C@H]3[C@H]1C5` [N-methylhydromorphone, N-methylhydromorphonium iodide], for which, in data set [1], the EC50 came out at 817 ± 83 nM and the “GTP-γ-S Activity/Efficacy % DAMGO” value is listed as 29 ± 1 % DAMGO. In addition, in data set [2], the Kp worked out at 0.02 ± 0.01. In addition, the “Penetration of the CNS / blood-brain barrier” value in data set [3] was “does not penetrate the CNS”.
